Test results reported in patent US20150218212A1, “FLUORINATED EPOXYKETONE-BASED TETRAPEPTIDE COMPOUNDS AND USES THEREOF AS PROTEASOME INHIBITORS” (FLUORINOV PHARMA INC., priority 2012, published 2015).

Experiments:
Assay type in all cases: cell-based, human
[1] = test system: HL-60(TB); assay: NCI screening panel, HL-60(TB) (Leukemia)
Protocol: (§1) Representative compounds of Formula I were screened using the National Cancer Institute (NCI) screening panel, which consists of a panel of human tumor cell lines, representing leukemia, melanoma, and cancers of the lung, colon, ovary, breast, prostate and renal system.
(§2) After 24 h, two plates of each cell line are fixed in situ with TCA, to represent a measurement of the cell population for each cell line at the time of drug addition (Tz). Experimental drugs are solubilised in dimethyl sulfoxide at 400-fold the desired final maximum test concentration and stored frozen prior to use. At the time of drug addition, an aliquot of frozen concentrate is thawed and diluted to twice the desired final maximum test concentration with complete medium containing 50 μg/mL gentamicin. Additional four, 10-fold or ½ log serial dilutions are made to provide a total of five drug concentrations plus control. Aliquots of 100 μl of these different drug dilutions are added to the appropriate microtiter wells already containing 100 μl of medium, resulting in the required final drug concentrations.
(§3) Following drug addition, the plates are incubated for an additional 48 h at 37° C., 5% CO2, 95% air, and 100% relative humidity. For adherent cells, the assay is terminated by the addition of cold TCA (trichloroacetic acid). Cells are fixed in situ by the gentle addition of 50 μl of cold 50% (w/v) TCA (final concentration, 10% TCA) and incubated for 60 minutes at 4° C. The supernatant is discarded, and the plates are washed five times with tap water and air dried. Sulforhodamine B (SRB) solution (100 μl) at 0.4% (w/v) in 1% acetic acid is added to each well, and plates are incubated for 10 minutes at room temperature. After staining, unbound dye is removed by washing five times with 1% acetic acid and the plates are air dried. Bound stain is subsequently solubilised with 10 mM trizma base, and the absorbance is read on an automated plate reader at a wavelength of 515 nm. For suspension cells, the methodology is the same except that the assay is terminated by fixing settled cells at the bottom of the wells by gently adding 50 μl of 80% TCA (final concentration, 16% TCA). Using the seven absorbance measurements [time zero, (Tz), control growth, (C), and test growth in the presence of drug at the five concentration levels (Ti)], the percentage growth is calculated at each of the drug concentrations levels. Percentage growth inhibition is calculated as: [(Ti−Tz)/(C−Tz)]×100 for concentrations for which Ti>/=Tz and [(Ti−Tz)/Tz]×100 for concentrations for which Ti<Tz.
(§4) Three dose response parameters are calculated for each experimental agent. Growth inhibition of 50% (GI50) is calculated from [(Ti−Tz)/(C−Tz)]×100=50, which is the drug concentration resulting in a 50% reduction in the net protein increase (as measured by SRB staining) in control cells during the drug incubation. The drug concentration resulting in total growth inhibition (TGI) is calculated from Ti=Tz. The LC50 (concentration of drug resulting in a 50% reduction in the measured protein at the end of the drug treatment as compared to that at the beginning) indicating a net loss of cells following treatment is calculated from [(Ti−Tz)/Tz]×100=−50. Values are calculated for each of these three parameters if the level of activity is reached. However, if the effect is not reached or is exceeded, the value for that parameter is expressed as greater or less than the maximum or minimum concentration tested.

[2] = test system: OVCAR-3; assay: NCI screening panel, OVCAR-3 (Ovarian Cancer)
Protocol: as §1, §2, §3, §4

[3] = test system: CCRF-CEM; assay: NCI screening panel, CCRF-CEM (Leukemia)
Protocol: as §1, §2, §3, §4

[4] = test system: RXF 393; assay: NCI screening panel, RXF 393 (Renal Cancer)
Protocol: as §1, §2, §3, §4

[5] = test system: T-47D; assay: NCI screening panel, T-47D (Breast Cancer)
Protocol: as §1, §2, §3, §4

[6] = test system: HOP-92; assay: NCI screening panel, HOP-92 (Non-Small Cell Lung Cancer)
Protocol: as §1, §2, §3, §4

[7] = test system: SW-620; assay: NCI screening panel, SW-620 (Colon Cancer)
Protocol: as §1, §2, §3, §4

Structure (SMILES): CC(C)C[C@H](NC(=O)[C@H](Cc1ccccc1)NC(=O)[C@H](COC(F)F)NC(=O)[C@H](COC(F)F)NC(=O)CN1CCOCC1)C(=O)[C@@]1(C)CO1 [Example 11, (2S)-2-[[(2S)-3-(difluoromethoxy)-2-[[(2S)-3-(difluoromethoxy)-2-[(2-morpholinoacetyl)-amino]propanoyl]amino]propanoyl]amino]-N-[(1S)-3-methyl-1-[(2R)-2-methyloxirane-2-carbonyl]butyl]-3-phenyl-propanamide]
- Log10GI50 [1]: −7.46
- Log10LC50 [1]: >−4.00
- Log10TGI50 [1]: −6.42
- Log10GI50 [2]: −7.66
- Log10LC50 [2]: −6.82
- Log10TGI50 [2]: −7.31
- Log10GI50 [3]: <−8.00
- Log10LC50 [3]: >−4.00
- Log10TGI50 [3]: −4.57
- Log10GI50 [4]: −6.98
- Log10LC50 [4]: −6.23
- Log10TGI50 [4]: −6.60
- Log10GI50 [5]: −7.71
- Log10TGI50 [5]: >−4.00
- Log10GI50 [6]: −7.62
- Log10LC50 [6]: −6.26
- Log10TGI50 [6]: −7.15
- Log10GI50 [7]: −7.63
- Log10LC50 [7]: >−4.00
- Log10TGI50 [7]: −5.97

Structure (SMILES): CC(C)C[C@H](NC(=O)[C@H](COC(F)F)NC(=O)[C@H](COC(F)F)NC(=O)[C@H](CCc1ccccc1)NC(=O)CN1CCOCC1)C(=O)[C@@]1(C)CO1 [Example 7, (2S)-N-[(1S)-1-(difluoromethoxymethyl)-2-[[(1S)-1-(difluoromethoxymethyl)-2-[[(1S)-3-methyl-1-[(2R)-2-methyloxirane-2-carbo-nyl]butyl]amino]-2-oxo-ethyl]amino]-2-oxo-ethyl]-2-[(2-morpholinoacetyl)amino]-4-phenyl-butanamide]
- Log10GI50 [1]: −7.46
- Log10LC50 [1]: >−4.00
- Log10TGI50 [1]: −6.48
- Log10GI50 [2]: −7.64
- Log10LC50 [2]: −6.40
- Log10TGI50 [2]: −7.24
- Log10GI50 [3]: <−8.00
- Log10LC50 [3]: >−4.00
- Log10TGI50 [3]: >−4.00
- Log10GI50 [4]: −6.93
- Log10LC50 [4]: −6.22
- Log10TGI50 [4]: −6.57
- Log10GI50 [5]: −7.85
- Log10LC50 [5]: >−4.00
- Log10TGI50 [5]: −7.32
- Log10GI50 [6]: −7.71
- Log10LC50 [6]: −6.54
- Log10TGI50 [6]: −7.28
- Log10GI50 [7]: −7.61
- Log10LC50 [7]: >−4.00
- Log10TGI50 [7]: −5.63

Structure (SMILES): CC(C)C[C@H](NC(=O)[C@H](COC(F)F)NC(=O)CN1CCOCC1)C(=O)N[C@@H](Cc1ccccc1)C(=O)N[C@@H](CC(C)C)C(=O)[C@@]1(C)CO1 [Example 2, (2S)-N-[(1S)-1-benzyl-2-[[(1S)-3-methyl-1-[(2R)-2-methyloxirane-2-carbonyl]butyl]-amino]-2-oxo-ethyl]-2-[[(2S)-3-(difluoromethoxy)-2-[(2-morpholinoacetyl)amino]propanoyl]amino]-4-methyl-pentanamide]
- Log10GI50 [1]: −7.55
- Log10LC50 [1]: >−4.00
- Log10TGI50 [1]: −6.11
- Log10GI50 [2]: −7.80
- Log10LC50 [2]: −6.64
- Log10TGI50 [2]: −7.34
- Log10GI50 [4]: −7.52
- Log10LC50 [4]: −6.41
- Log10TGI50 [4]: −6.98
- Log10GI50 [5]: <−8.00
- Log10TGI50 [5]: −7.55
- Log10GI50 [7]: <−8.00
- Log10LC50 [7]: >−4.00
- Log10TGI50 [7]: −5.92

Structure (SMILES): CC(C)C[C@H](NC(=O)[C@H](COC(F)F)NC(=O)CN1CCOCC1)C(=O)N[C@@H](Cc1ccccc1)C(=O)N[C@@H](Cc1ccccc1)C(=O)[C@@]1(C)CO1 [Example 3, (2S)-N-[(1S)-1-benzyl-2-[[(1S)-1-benzyl-2-[(2R)-2-methyloxiran-2-yl]-2-oxo-ethyl]amino]-2-oxo-ethyl]-2-[[(2S)-3-(difluoromethoxy)-2-[(2-morpholinoacetyl)-amino]propanoyl]amino]-4-methyl-pentan-amide]
- Log10GI50 [1]: −7.83
- Log10LC50 [1]: >−4.00
- Log10TGI50 [1]: −6.67
- Log10GI50 [2]: <−8.00
- Log10LC50 [2]: −6.36
- Log10TGI50 [2]: −7.25
- Log10GI50 [3]: <−8.00
- Log10LC50 [3]: >−4.00
- Log10TGI50 [3]: −4.88
- Log10GI50 [4]: −7.64
- Log10LC50 [4]: −6.58
- Log10TGI50 [4]: −7.18
- Log10GI50 [5]: <−8.00
- Log10TGI50 [5]: −7.59
- Log10GI50 [7]: <−8.00
- Log10LC50 [7]: −4.27
- Log10TGI50 [7]: −6.63

Structure (SMILES): CC(C)C[C@H](NC(=O)[C@H](COC(F)F)NC(=O)CN1CCOCC1)C(=O)N[C@@H](COC(F)F)C(=O)N[C@@H](Cc1ccccc1)C(=O)[C@@]1(C)CO1 [Example 4, (2S)-N-[(1S)-2-[[(1S)-1-benzyl-2-[(2R)-2-methyloxiran-2-yl]-2-oxo-ethyl]amino]-1-(difluoromethoxymethyl)-2-oxo-ethyl]-2-[[(2S)-3-(difluoromethoxy)-2-[(2-mor-pholinoacetyl)amino]propanoyl]amino]-4 methyl-pentanamide]
- Log10GI50 [1]: −7.44
- Log10LC50 [1]: >−4.00
- Log10TGI50 [1]: −6.44
- Log10GI50 [2]: −7.43
- Log10LC50 [2]: −6.11
- Log10TGI50 [2]: −6.89
- Log10GI50 [3]: <−8.00
- Log10LC50 [3]: >−4.00
- Log10TGI50 [3]: >−4.00
- Log10GI50 [4]: −6.83
- Log10LC50 [4]: −6.05
- Log10TGI50 [4]: −6.44
- Log10GI50 [5]: −7.68
- Log10TGI50 [5]: −7.08
- Log10GI50 [6]: −7.59
- Log10LC50 [6]: −6.24
- Log10TGI50 [6]: −7.15
- Log10GI50 [7]: −7.43
- Log10LC50 [7]: −4.40
- Log10TGI50 [7]: −5.98

Structure (SMILES): CC(C)C[C@H](NC(=O)[C@H](COC(F)F)NC(=O)[C@H](COC(F)F)NC(=O)[C@H](COC(F)F)NC(=O)CN1CCOCC1)C(=O)[C@@]1(C)CO1 [Example 17, (2S)-3-(difluoromethoxy)-N-[(1S)-1-(difluoromethoxymethyl)-2-[[(1S)-1-(difluoro-methoxymethyl)-2-[[(1S)-3-methyl-1-[(2R)-2-methyloxirane-2-carbonyl]butyl]amino]-2-oxo-ethyl]amino]-2-oxo-ethyl]-2-[(2-mor-pholinoacetyl)amino]-propanamide]
- Log10GI50 [1]: −6.70
- Log10LC50 [1]: >−4.00
- Log10TGI50 [1]: −5.87
- Log10GI50 [2]: −7.30
- Log10LC50 [2]: −6.05
- Log10TGI50 [2]: −6.65
- Log10GI50 [3]: −7.39
- Log10LC50 [3]: >−4.00
- Log10TGI50 [3]: >−4.00
- Log10GI50 [4]: −6.48
- Log10LC50 [4]: −5.41
- Log10TGI50 [4]: −5.94
- Log10GI50 [5]: −7.10
- Log10LC50 [5]: >−4.00
- Log10TGI50 [5]: −6.33
- Log10GI50 [6]: −7.56
- Log10LC50 [6]: −6.02
- Log10TGI50 [6]: −7.01
- Log10GI50 [7]: −7.08
- Log10LC50 [7]: >−4.00
- Log10TGI50 [7]: −4.95
